The target of data set [1] is T1, kinase domain protein of RC kinase (Homo sapiens, UniProt Q56UN5).
T1 sequence (Q56UN5 1061-1324 limits assumed): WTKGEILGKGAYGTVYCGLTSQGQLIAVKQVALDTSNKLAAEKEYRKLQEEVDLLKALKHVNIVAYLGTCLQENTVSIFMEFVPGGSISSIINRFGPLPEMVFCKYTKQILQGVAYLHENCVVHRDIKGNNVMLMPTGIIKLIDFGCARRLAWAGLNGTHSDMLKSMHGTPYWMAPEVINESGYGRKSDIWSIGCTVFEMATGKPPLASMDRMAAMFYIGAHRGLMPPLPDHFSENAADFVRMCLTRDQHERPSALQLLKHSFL
Briefly: Enzymatic assay for kinase inhibitory activity (Crebtide substrate, LANCE readout), kinase domain protein. It is filed as biochemical. Conditions: test compound 1 μM, ATP 1 μM, Crebtide 50 nM. As to the method: Solutions of a test compound, Crebtide (a substrate), a kinase, and ATP were prepared using 1×MAPK Buffer (50 mM HEPES, 1 mM EGTA, […], 10 mM MgCl2, 2 mM DTT, and 0.01% Tween 20).
To each well, the test compound (1 μL) was first added (in duplicate) to reach a final concentration of 1 μM or 1×IC50 of the compound. The kinase (5 μL) was then added to each well to reach a final concentration of […] for the kinase domain or […] for the full-length domain. Each plate included a positive and negative controls in duplicate wells. Crebtide (2.5 μL) was then added to each well in duplicate to reach a final concentration of 50 nM. If the full-length kinase was used, the plates were incubated for 45 min at room temperature before proceeding further. ATP (2.5 μL) was added to each well to reach a final concentration of 1 μM for the kinase domain and 3 μM for the full-length.
After the addition of ATP, the plates were incubated for 45 min at room temperature. During the incubation, an EDTA solution (40 mM) and anti-Crebtide ([…]) were prepared. Additionally, a detection buffer stock solution was diluted ten fold before use.
After the incubation, the anti-Crebtide (5 μL) and EDTA (5 μL) were added to each well to reach their final concentrations of […] and 10 mM, respectively. The plates were allowed to develop at room temperature for 45 min. The plates were then read at 665 nm and 615 nm using Perkin Elmer Lance machine.
The biological results of inhibition of the kinase domain protein of RC kinase are summarized in Tables 2 and 3, wherein A represents at least 50% inhibition of the RC kinase activity at 1 μM; B represents no greater than 50% but at least 20% inhibition of the RC kinase activity at 1 μM; C represents no greater than 20% but at least 5% inhibition of the RC kinase activity at 1 μM; and D represents no greater than 5% inhibition of the RC kinase activity at 1 μM.
On the technique in general: TR-FRET usually uses a lanthanide donor and a delayed reading to cut background.

The term inhibition denotes the share of the control response that was lost under treatment. Usually melting point stands for the temperature, or range, at which the solid turns liquid.

For `COc1cc(CNc2[nH]nc(Nc3cccnc3)c2C(N)=O)ccc1F` [Compound D40, 5-((4-fluoro-3-methoxybenzyl)amino)-3-(pyridin-3-ylamino)-1H-pyrazole-4-carboxamide], the melting point lay in the range of 226 to 229 °C. This compound also returned an inhibition at 1 µM in data set [1] of 20 to 50%.

Consider `NC(=O)c1c(Nc2ccc(NC(=O)c3cccc(F)c3)cc2)n[nH]c1NCc1ccc(O)cc1` [Compound D131], for which the melting point lay within 216 to 220 °C. In data set [1], this compound displayed an inhibition at 1 µM of no less than 50%.

`NC(=O)c1c(Nc2cccnc2)n[nH]c1NCc1ccc(Cl)cc1` [Compound D154, 5-((4-chlorobenzyl)amino)-3-(pyridin-3-ylamino)-1H-pyrazole-4-carboxamide] yielded a melting point of 228 to 231 °C. The same compound showed an inhibition at 1 µM in data set [1] of 5 to 20%.

`CN(C)c1ccc(Nc2n[nH]c(NCc3ccc(O)cc3)c2C(N)=O)cc1` [Compound D126, 3-((4-(dimethylamino)phenyl)amino)-5-((4-hydroxybenzyl)amino)-1H-pyrazole-4-carboxamide] showed a melting point of 184 to 188 °C. Also, the inhibition at 1 µM in data set [1] was no less than 50%.

As to `NC(=O)c1c(Nc2cccc(Cl)c2)n[nH]c1NCc1ccc(Oc2ccc(C(F)(F)F)cn2)cc1` [Compound D33, 3-((3-chlorophenyl)amino)-5-((4-((5-(trifluoromethyl)pyridin-2-yl)oxy)benzyl)amino)-1H-pyrazole-4-carboxamide], the melting point was in the range of 205 to 211 °C. The compound further registered an inhibition at 1 µM in data set [1] of 5 to 20%.

In turn, `NC(=O)c1c(Nc2cccnc2)n[nH]c1NCc1ccc(O)cc1` [Compound D150, 5-((4-hydroxybenzyl)amino)-3-(pyridin-3-ylamino)-1H-pyrazole-4-carboxamide] showed a melting point of 229 to 233 °C. The compound also returned an inhibition at 1 µM in data set [1] of no less than 50%.

`COc1cc(CNc2[nH]nc(NCc3ccc(O)cc3)c2C(N)=O)ccc1F` [Compound D105] yielded a melting point of 180 to 184 °C. For the same compound, the inhibition at 1 µM in data set [1] lay within 20 to 50%.

On to `NC(=O)c1c(Nc2cccc(Cl)c2)n[nH]c1NCc1ccc(O)cc1` [Compound D1, 3-((3-chlorophenyl)amino)-5-((4-hydroxybenzyl)amino)-1H-pyrazole-4-carboxamide], for which the melting point fell in the range of 196 to 200 °C. Further, in data set [1], the inhibition at 1 µM was no less than 50%.

With `NC(=O)c1c(Nc2ccc(-c3ccccc3)cc2)n[nH]c1NCc1ccc(O)cc1` [Compound D161, 3-([1,1′-biphenyl]-4-ylamino)-5-((4-hydroxybenzyl)amino)-1H-pyrazole-4-carboxamide], the melting point fell in the range of 206 to 210 °C. The same compound yielded an inhibition at 1 µM in data set [1] of no less than 50%.

`NC(=O)c1c(Nc2cccnc2)n[nH]c1NCc1ccc[nH]1` [Compound D53, 5-(((1H-pyrrol-2-yl)methyl)amino)-3-(pyridin-3-ylamino)-1H-pyrazole-4-carboxamide] came in with a melting point of 201 to 206 °C. Besides, in data set [1], the inhibition at 1 µM fell in the range of 5 to 20%.

Regarding `CCOC(=O)c1cccc(Nc2n[nH]c(NCc3ccc(O)cc3)c2C(N)=O)c1` [Compound D67, ethyl 3-((4-carbamoyl-5-((4-hydroxybenzyl)amino)-1H-pyrazol-3-yl)amino)benzoate], the melting point was in the range of 132 to 136 °C. This compound displayed an inhibition at 1 µM in data set [1] of no less than 50%.

`NC(=O)c1c(Nc2ccc(N3CCOCC3)c(Cl)c2)n[nH]c1NCc1ccc(O)cc1` [Compound D75, 3-((3-chloro-4-morpholinophenyl)amino)-5-((4-hydroxybenzyl)amino)-1H-pyrazole-4-carboxamide] showed a melting point of 162 to 168 °C. The compound also returned an inhibition at 1 µM in data set [1] of no less than 50%.

Compound `NC(=O)c1c(Nc2ccc(S(N)(=O)=O)cc2)n[nH]c1NCc1ccc(O)cc1` [Compound D107, 5-((4-hydroxybenzyl)amino)-3-((4-sulfamoylphenyl)amino)-1H-pyrazole-4-carboxamide] showed a melting point of 270 to 275 °C. In addition, the inhibition at 1 µM in data set [1] is no less than 50%.

Turning to `NC(=O)c1c(Nc2ccc(N3CCOCC3)nc2)n[nH]c1NCc1ccc(O)cc1` [Compound D118], the melting point lay in the range of 199 to 203 °C. The same compound had an inhibition at 1 µM in data set [1] of no less than 50%.

Compound `N#Cc1c(Nc2cccc(Cl)c2)n[nH]c1NCc1ccc(Cl)cc1O` [Compound C24] gave a melting point of 172 to 180 °C. Also, the inhibition at 1 µM in data set [1] fell in the range of 5 to 20%.

In turn, `NC(=O)c1c(Nc2ccc(-n3ccnc3)cc2)n[nH]c1NCc1ccc(O)cc1` [Compound D60] gave a melting point of 228 to 231 °C. The compound also registered an inhibition at 1 µM in data set [1] of no less than 50%.

`Cn1nc(CSc2ccccc2)c(CNc2[nH]nc(Nc3cccc(Cl)c3)c2C#N)c1Cl` [Compound C3] showed a melting point of 100 to 104 °C. Further, the inhibition at 1 µM in data set [1] fell in the range of 5 to 20%.

Compound `NC(=O)c1c(Nc2ccc3[nH]ncc3c2)n[nH]c1NCc1ccc(O)cc1` [Compound D76, 3-((1H-indazol-5-yl)amino)-5-((4-hydroxybenzyl)amino)-1H-pyrazole-4-carboxamide] returned a melting point of 250 to 260 °C. The compound also registered an inhibition at 1 µM in data set [1] of no less than 50%.

With `N#Cc1c(Nc2cccc(Cl)c2)n[nH]c1NCc1ccc(Cl)cc1Cl` [Compound C19], the melting point was in the range of 171 to 174 °C. The compound further had an inhibition at 1 µM in data set [1] of 5 to 20%.

`CC(=O)c1ccc(Nc2n[nH]c(NCc3ccc(O)cc3)c2C(N)=O)cc1` [Compound D62, 3-((4-acetylphenyl)amino)-5-((4-hydroxybenzyl)amino)-1H-pyrazole-4-carboxamide] registered a melting point of 167 to 172 °C. Besides, in data set [1], the inhibition at 1 µM is no less than 50%.

In turn, `NC(=O)c1c(Nc2cccc(Cl)c2)n[nH]c1NCc1ccc(Oc2ncccn2)cc1` [Compound D32, 3-((3-chlorophenyl)amino)-5-((4-(pyrimidin-2-yloxy)benzyl)amino)-1H-pyrazole-4-carboxamide] registered a melting point of 193 to 199 °C. Besides, the “Activity (inhibition of the RC kinase activity at 1 μM)” value in data set [1] is recorded as “B (no greater than 50% but at least 20% inhibition of the RC kinase activity at 1 μM)”.

`NC(=O)c1c(Nc2ccc(-c3cnco3)cc2)n[nH]c1NCc1ccc(O)cc1` [Compound D111] registered a melting point of 258 to 266 °C. The compound also gave an inhibition at 1 µM in data set [1] of no less than 50%.

For `NC(=O)c1c(Nc2cccnc2)n[nH]c1NCc1cccc(O)c1` [Compound D38, 5-((3-hydroxybenzyl)amino)-3-(pyridin-3-ylamino)-1H-pyrazole-4-carboxamide], the melting point was in the range of 208 to 212 °C. Moreover, the inhibition at 1 µM in data set [1] is no less than 50%.

`COc1cccc(Nc2n[nH]c(NCc3ccc(O)cc3)c2C(N)=O)c1` [Compound D65, 5-((4-hydroxybenzyl)amino)-3-((3-methoxyphenyl)amino)-1H-pyrazole-4-carboxamide] showed a melting point of 177 to 180 °C. In data set [1], this compound returned an inhibition at 1 µM of no less than 50%.

`NC(=O)c1c(Nc2ccc(N3CCN(C(=O)N4CCCCC4)CC3)cc2)n[nH]c1NCc1ccc(O)cc1` [Compound D110, 5-((4-hydroxybenzyl)amino)-3-((4-(4-(piperidine-1-carbonyl)piperazin-1-yl)phenyl)amino)-1H-pyrazole-4-carboxamide] came in with a melting point of 236 to 240 °C. The inhibition at 1 µM in data set [1] was no less than 50%.

The compound `CCc1cccc(Nc2n[nH]c(NCc3ccc(O)cc3)c2C(N)=O)c1` [Compound D68, 3-((3-ethylphenyl)amino)-5-((4-hydroxybenzyl)amino)-1H-pyrazole-4-carboxamide] gave a melting point of 208 to 212 °C. In data set [1], the inhibition at 1 µM is no less than 50%.

As to `COc1ccc(CNc2[nH]nc(Nc3cccc(Cl)c3)c2C(N)=O)c(OC)c1OC` [Compound D69], the melting point was 196 to 200 °C. In addition, the inhibition at 1 µM in data set [1] was 5 to 20%.

For the compound `COc1cc(OC)c(OC)cc1CNc1[nH]nc(Nc2cccnc2)c1C(N)=O` [Compound D46, 3-(pyridin-3-ylamino)-5-((2,4,5-trimethoxybenzyl)amino)-1H-pyrazole-4-carboxamide], the melting point lay within 197 to 202 °C. The compound also gave an inhibition at 1 µM in data set [1] of 5 to 20%.

The compound `N#Cc1c(Nc2cccnc2)n[nH]c1NCc1ccc(O)cc1` [Compound C33, 5-((4-hydroxybenzyl)amino)-3-(pyridin-3-ylamino)-1H-pyrazole-4-carbonitrile] showed a melting point of 216 to 222 °C. In data set [1], this compound returned an inhibition at 1 µM of 20 to 50%.

As for `CN1CCN(c2ccc(Nc3n[nH]c(NCc4ccc(O)cc4)c3C(N)=O)cc2Cl)CC1` [Compound D116], the melting point was 230 to 236 °C. Besides, the inhibition at 1 µM in data set [1] was no less than 50%.
